#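 Protocol summary: plate cells (96-well), add compound at 5 concentrations, incubate 48 h, interpolate endpoints linearly. TGI marks complete inhibition of growth.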
# Assays:
# Assay in all cases: NCI-60 cell line screen, 48 h
# HT29 colon = system: HT29 colon
# HCT-15 colon = system: HCT-15 colon
# OVCAR-3 ovarian = system: OVCAR-3 ovarian
# SF-539 CNS = system: SF-539 CNS
# HOP-18 NSCLC = system: HOP-18 NSCLC
# RPMI-8226 leukemia = system: RPMI-8226 leukemia
# OVCAR-4 ovarian = system: OVCAR-4 ovarian
# ACHN renal = system: ACHN renal
# M19-MEL melanoma = system: M19-MEL melanoma
# 786-0 renal = system: 786-0 renal
# COLO 205 colon = system: COLO 205 colon
# U251 CNS = system: U251 CNS
# K-562 leukemia = system: K-562 leukemia
# NCI-H460 lung = system: NCI-H460 lung
# NCI-H522 lung = system: NCI-H522 lung
# SW-620 colon = system: SW-620 colon
# HOP-92 NSCLC = system: HOP-92 NSCLC
# CCRF-CEM leukemia = system: CCRF-CEM leukemia
# KM12 colon = system: KM12 colon
# SNB-78 CNS = system: SNB-78 CNS
# KM20L2 colon = system: KM20L2 colon
# NCI-H226 lung = system: NCI-H226 lung
# DLD-1 colon = system: DLD-1 colon
# MOLT-4 leukemia = system: MOLT-4 leukemia
# LOX IMVI melanoma = system: LOX IMVI melanoma
# SK-MEL-2 melanoma = system: SK-MEL-2 melanoma
# SK-OV-3 ovarian = system: SK-OV-3 ovarian
# M14 melanoma = system: M14 melanoma
# SNB-19 CNS = system: SNB-19 CNS
# UO-31 renal = system: UO-31 renal
# SF-268 CNS = system: SF-268 CNS
# LXFL 529 NSCLC = system: LXFL 529 NSCLC
# HL-60(TB) leukemia = system: HL-60(TB) leukemia
# CAKI-1 renal = system: CAKI-1 renal
# SK-MEL-28 melanoma = system: SK-MEL-28 melanoma
# DMS 273 small cell lung = system: DMS 273 small cell lung
# HOP-62 NSCLC = system: HOP-62 NSCLC
# MALME-3M melanoma = system: MALME-3M melanoma
# UACC-62 melanoma = system: UACC-62 melanoma
# A549 NSCLC = system: A549 NSCLC
# TK-10 renal = system: TK-10 renal
# SF-295 CNS = system: SF-295 CNS
# A498 renal = system: A498 renal
# IGROV1 ovarian = system: IGROV1 ovarian
# DMS 114 small cell lung = system: DMS 114 small cell lung
# HCC-2998 colon = system: HCC-2998 colon
# HCT-116 colon = system: HCT-116 colon
# UACC-257 melanoma = system: UACC-257 melanoma
# SN12C renal = system: SN12C renal
# OVCAR-8 ovarian = system: OVCAR-8 ovarian
# SK-MEL-5 melanoma = system: SK-MEL-5 melanoma
# XF 498 CNS = system: XF 498 CNS
# EKVX NSCLC = system: EKVX NSCLC
# OVCAR-5 ovarian = system: OVCAR-5 ovarian
# NCI-H23 lung = system: NCI-H23 lung
# RXF 393 renal = system: RXF 393 renal
# SNB-75 CNS = system: SNB-75 CNS
# RXF-631 renal = system: RXF-631 renal
# SR leukemia = system: SR leukemia
structure (smiles),measurement,setting,value
O/N=C\C(=Nc1ccc(Cc2ccc(N=C(/C=N\O)NO)cc2)cc1)NO,TGI,HT29 colon,> 100 µM
same,TGI,HCT-15 colon,> 100 µM
same,TGI,OVCAR-3 ovarian,> 100 µM
same,TGI,SF-539 CNS,> 100 µM
same,TGI,HOP-18 NSCLC,> 100 µM
same,TGI,RPMI-8226 leukemia,> 100 µM
same,TGI,OVCAR-4 ovarian,> 100 µM
same,TGI,ACHN renal,> 100 µM
same,TGI,M19-MEL melanoma,> 100 µM
same,TGI,786-0 renal,> 100 µM
same,TGI,COLO 205 colon,> 100 µM
same,TGI,U251 CNS,> 100 µM
same,TGI,K-562 leukemia,> 100 µM
same,TGI,NCI-H460 lung,> 100 µM
same,TGI,NCI-H522 lung,> 100 µM
same,TGI,SW-620 colon,> 100 µM
same,TGI,HOP-92 NSCLC,> 100 µM
same,TGI,CCRF-CEM leukemia,> 100 µM
same,TGI,KM12 colon,> 100 µM
same,TGI,SNB-78 CNS,> 100 µM
same,TGI,KM20L2 colon,> 100 µM
same,TGI,NCI-H226 lung,> 100 µM
same,TGI,DLD-1 colon,> 100 µM
same,TGI,MOLT-4 leukemia,> 100 µM
same,TGI,LOX IMVI melanoma,> 100 µM
same,TGI,SK-MEL-2 melanoma,> 100 µM
same,TGI,SK-OV-3 ovarian,> 100 µM
same,TGI,M14 melanoma,> 100 µM
same,TGI,SNB-19 CNS,> 100 µM
same,TGI,UO-31 renal,65 µM
same,TGI,SF-268 CNS,> 100 µM
same,TGI,LXFL 529 NSCLC,> 100 µM
same,TGI,HL-60(TB) leukemia,66.5 µM
same,TGI,CAKI-1 renal,69.2 µM
same,TGI,SK-MEL-28 melanoma,> 100 µM
same,TGI,DMS 273 small cell lung,> 100 µM
same,TGI,HOP-62 NSCLC,> 100 µM
same,TGI,MALME-3M melanoma,> 100 µM
same,TGI,UACC-62 melanoma,> 100 µM
same,TGI,A549 NSCLC,> 100 µM
same,TGI,TK-10 renal,> 100 µM
same,TGI,SF-295 CNS,> 100 µM
same,TGI,A498 renal,> 100 µM
same,TGI,IGROV1 ovarian,> 100 µM
same,TGI,DMS 114 small cell lung,> 100 µM
same,TGI,HCC-2998 colon,> 100 µM
same,TGI,HCT-116 colon,> 100 µM
same,TGI,UACC-257 melanoma,> 100 µM
same,TGI,SN12C renal,> 100 µM
same,TGI,OVCAR-8 ovarian,> 100 µM
same,TGI,SK-MEL-5 melanoma,> 100 µM
same,TGI,XF 498 CNS,> 100 µM
same,TGI,EKVX NSCLC,> 100 µM
same,TGI,OVCAR-5 ovarian,> 100 µM
same,TGI,NCI-H23 lung,> 100 µM
CC(=O)NC1=C(N)C(=O)c2ccccc2C1=O,TGI,HT29 colon,> 100 µM
same,TGI,HCT-15 colon,> 100 µM
same,TGI,OVCAR-3 ovarian,61.9 µM
same,TGI,SF-539 CNS,> 100 µM
same,TGI,HOP-18 NSCLC,> 100 µM
same,TGI,RPMI-8226 leukemia,> 100 µM
same,TGI,ACHN renal,> 100 µM
same,TGI,M19-MEL melanoma,41 µM
same,TGI,786-0 renal,> 100 µM
same,TGI,COLO 205 colon,80.6 µM
same,TGI,U251 CNS,> 100 µM
same,TGI,K-562 leukemia,> 100 µM
same,TGI,RXF 393 renal,> 100 µM
same,TGI,NCI-H460 lung,40.6 µM
same,TGI,NCI-H522 lung,> 100 µM
same,TGI,SW-620 colon,29.2 µM
same,TGI,HOP-92 NSCLC,> 100 µM
same,TGI,CCRF-CEM leukemia,> 100 µM
same,TGI,SNB-75 CNS,> 100 µM
same,TGI,KM12 colon,> 100 µM
same,TGI,SNB-78 CNS,> 100 µM
same,TGI,KM20L2 colon,> 100 µM
same,TGI,DLD-1 colon,> 100 µM
same,TGI,MOLT-4 leukemia,> 100 µM
same,TGI,LOX IMVI melanoma,28.6 µM
same,TGI,SK-MEL-2 melanoma,> 100 µM
same,TGI,SK-OV-3 ovarian,> 100 µM
same,TGI,M14 melanoma,> 100 µM
same,TGI,SNB-19 CNS,> 100 µM
same,TGI,UO-31 renal,> 100 µM
same,TGI,SF-268 CNS,> 100 µM
same,TGI,LXFL 529 NSCLC,> 100 µM
same,TGI,HL-60(TB) leukemia,> 100 µM
same,TGI,CAKI-1 renal,> 100 µM
same,TGI,DMS 273 small cell lung,> 100 µM
same,TGI,HOP-62 NSCLC,> 100 µM
same,TGI,MALME-3M melanoma,50.4 µM
same,TGI,UACC-62 melanoma,> 100 µM
same,TGI,A549 NSCLC,> 100 µM
same,TGI,TK-10 renal,> 100 µM
same,TGI,SF-295 CNS,> 100 µM
same,TGI,RXF-631 renal,> 100 µM
same,TGI,A498 renal,> 100 µM
same,TGI,IGROV1 ovarian,> 100 µM
same,TGI,DMS 114 small cell lung,28.1 µM
same,TGI,HCC-2998 colon,> 100 µM
same,TGI,HCT-116 colon,35 µM
same,TGI,UACC-257 melanoma,> 100 µM
same,TGI,SN12C renal,> 100 µM
same,TGI,OVCAR-8 ovarian,> 100 µM
same,TGI,SK-MEL-5 melanoma,> 100 µM
same,TGI,XF 498 CNS,> 100 µM
same,TGI,EKVX NSCLC,> 100 µM
same,TGI,OVCAR-5 ovarian,> 100 µM
same,TGI,NCI-H23 lung,> 100 µM
CCC(=O)C(C(=O)CC)c1c(OC(=O)c2ccccc2)ccc(O)c1C(=O)OC,TGI,HT29 colon,> 100 µM
same,TGI,HCT-15 colon,> 100 µM
same,TGI,OVCAR-3 ovarian,> 100 µM
same,TGI,SF-539 CNS,> 100 µM
same,TGI,SR leukemia,> 100 µM
same,TGI,RPMI-8226 leukemia,> 100 µM
same,TGI,OVCAR-4 ovarian,> 100 µM
same,TGI,ACHN renal,> 100 µM
same,TGI,M19-MEL melanoma,> 100 µM
same,TGI,786-0 renal,> 100 µM
same,TGI,COLO 205 colon,> 100 µM
same,TGI,U251 CNS,> 100 µM
same,TGI,K-562 leukemia,> 100 µM
same,TGI,RXF 393 renal,> 100 µM
same,TGI,NCI-H460 lung,> 100 µM
same,TGI,NCI-H522 lung,> 100 µM
same,TGI,SW-620 colon,> 100 µM
same,TGI,HOP-92 NSCLC,> 100 µM
same,TGI,CCRF-CEM leukemia,> 100 µM
same,TGI,SNB-75 CNS,> 100 µM
same,TGI,KM12 colon,> 100 µM
same,TGI,SNB-78 CNS,> 100 µM
same,TGI,KM20L2 colon,> 100 µM
same,TGI,NCI-H226 lung,> 100 µM
same,TGI,MOLT-4 leukemia,> 100 µM
same,TGI,LOX IMVI melanoma,> 100 µM
same,TGI,SK-MEL-2 melanoma,> 100 µM
same,TGI,SK-OV-3 ovarian,> 100 µM
same,TGI,M14 melanoma,> 100 µM
same,TGI,SNB-19 CNS,> 100 µM
same,TGI,UO-31 renal,> 100 µM
same,TGI,SF-268 CNS,> 100 µM
same,TGI,LXFL 529 NSCLC,> 100 µM
same,TGI,HL-60(TB) leukemia,> 100 µM
same,TGI,CAKI-1 renal,> 100 µM
same,TGI,SK-MEL-28 melanoma,> 100 µM
same,TGI,DMS 273 small cell lung,> 100 µM
same,TGI,HOP-62 NSCLC,> 100 µM
same,TGI,UACC-62 melanoma,> 100 µM
same,TGI,A549 NSCLC,> 100 µM
same,TGI,TK-10 renal,> 100 µM
same,TGI,SF-295 CNS,> 100 µM
same,TGI,RXF-631 renal,> 100 µM
same,TGI,A498 renal,> 100 µM
same,TGI,IGROV1 ovarian,> 100 µM
same,TGI,HCT-116 colon,> 100 µM
same,TGI,UACC-257 melanoma,> 100 µM
same,TGI,SN12C renal,> 100 µM
same,TGI,OVCAR-8 ovarian,> 100 µM
same,TGI,SK-MEL-5 melanoma,> 100 µM
same,TGI,XF 498 CNS,> 100 µM
same,TGI,EKVX NSCLC,> 100 µM
same,TGI,OVCAR-5 ovarian,> 100 µM
same,TGI,NCI-H23 lung,> 100 µM

# From PubChem BioAssay (NCI)
